{"source": "patent US20070208087A1", "about": "“Compounds, compositions and methods for the treatment of inflammatory diseases” (priority 2001, published 2007)", "key": {"[1]": {"system": "EOC 13.31 microglia cells", "assay": "NO release inhibition in LPS/IFNγ stimulated microglia, concurrent treatment, Griess reaction at 24 hours (Example 6)", "type": "cell-based", "conditions": "24 hours; for NO release, Avg: 50 μM; for inhibition at 50 µM: Microglia", "outline": "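Confluent EOC 13.31 microglia were given 50 μM compound together with 1 pg/ml LPS plus 1 ng/ml IFNγ, or without stimulation. NO release was quantified spectrophotometrically by Griess reaction 24 hours later.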"}, "Microglial cells": {"system": "Microglial cells", "assay": "Dose response inhibition of NO release from microglia, 0.75-200 μM (Example 8)", "type": "cell-based", "experimental": "This experiment was designed to determine dose response inhibition of NO release from microglia by bis- and tris-dihydroxyaryl compounds when stimulated with LPS/IFNγ. […] This experiment is designed to determine a dose response for various bis- and tris-dihydroxyaryl compounds. Microglial cells were plated into 96 well plates at 1×10^5 cells/ml. […] The doses tested were: 0.75 μM, 1.56 μM, 3.125 μM, 6.25 μM, 12.5 μM, 25 μM, 50 μM, 100 μM and 200 μM. Nitric oxide release was measured after 48 hours using the Griess reaction."}, "[2]": {"conditions": "dose 0.75 μM, 48 hours, single replicates"}, "[3]": {"conditions": "dose 1.56 μM, 48 hours, single replicates"}, "[4]": {"conditions": "dose 3.125 μM, 48 hours, single replicates"}, "[5]": {"conditions": "dose 6.25 μM, 48 hours, single replicates"}, "[6]": {"conditions": "dose 12.5 μM, 48 hours, single replicates"}, "[7]": {"conditions": "dose 25 μM, 48 hours, single replicates"}, "[8]": {"conditions": "dose 50 μM, 48 hours, single replicates"}, "[9]": {"conditions": "dose 100 μM, 48 hours, single replicates"}}, "note": "Several values for one entry are separate records, joined by “and”; a condition that tells them apart may be missing. Equal entries are not always repeated. Where two headings read alike, the source gives them in different places.", "data": [{"compound": "O=C(NCc1ccc(O)c(O)c1)C(=Cc1ccc(O)c(O)c1)NC(=O)c1ccc(O)c(O)c1", "note": "[Compound 21, α-(3,4-dihydroxybenzamido)-3,4-dihydroxycinnamic acid 3,4-dihydroxybenzyl amide]", "values": [{"measurement": "NO release, Avg", "setting": "[1]; Compound + LPS/IFNγ", "value": 15.3486, "unit": "µM"}, {"measurement": "NO release, Avg", "setting": "[1]; Compound Only (without LPS/IFNγ)", "value": -0.0417, "unit": "µM"}, {"measurement": "inhibition at 50 µM", "setting": "[1]; Compound + LPS/IFNγ, read-out: % inhibition of NO release", "value": 17.6, "unit": "%"}, {"measurement": "inhibition at 50 µM", "setting": "[1]; Table 2 summary, LPS/IFNγ, read-out: % Inhibition (summary of inhibition of NO release)", "value": 17.6, "unit": "%"}, {"measurement": "inhibition at 0.75 µM", "setting": "Microglial cells; Microglia, 48 h, dose 0.75 μM", "value": -15.5, "unit": "%"}, {"measurement": "inhibition at 1.56 µM", "setting": "Microglial cells; Microglia, 48 h, dose 1.56 μM", "value": -6.58, "unit": "%"}, {"measurement": "inhibition at 3.125 µM", "setting": "Microglial cells; Microglia, 48 h, dose 3.125 μM", "value": -6.05, "unit": "%"}, {"measurement": "inhibition at 6.25 µM", "setting": "Microglial cells; Microglia, 48 h, dose 6.25 μM, 48 hours, read-out: Avg % Inhibition", "value": -1.84, "unit": "%"}, {"measurement": "inhibition at 12.5 µM", "setting": "Microglial cells; Microglia, 48 h, dose 12.5 μM, 48 hours, read-out: Avg % Inhibition", "value": 5, "unit": "%"}, {"measurement": "inhibition at 25 µM", "setting": "Microglial cells; Microglia, 48 h, dose 25 μM, 48 hours, read-out: Avg % Inhibition", "value": 2.9, "unit": "%"}, {"measurement": "inhibition at 50 µM", "setting": "Microglial cells; Microglia, 48 h, dose 50 μM, 48 hours, read-out: Avg % Inhibition", "value": 13.7, "unit": "%"}, {"measurement": "inhibition at 50 µM", "setting": "Microglial cells; Microglia, 48 h, dose 50 μM, 48 hours, single replicates, read-out: % inhibition", "value": 16.3, "unit": "%"}, {"measurement": "inhibition at 100 µM", "setting": "Microglial cells; Microglia, 48 h, dose 100 μM, 48 hours, read-out: Avg % Inhibition", "value": 33.7, "unit": "%"}, {"measurement": "inhibition at 100 µM", "setting": "Microglial cells; Microglia, 48 h, dose 100 μM, 48 hours, single replicates, read-out: % inhibition", "value": 33.7, "unit": "%"}, {"measurement": "inhibition at 200 µM", "setting": "Microglial cells; Microglia, 48 h, dose 200 μM, 48 hours, read-out: Avg % Inhibition", "value": 69, "unit": "%"}, {"measurement": "inhibition at 200 µM", "setting": "Microglial cells; Microglia, 48 h, dose 200 μM, 48 hours, single replicates, read-out: % inhibition", "value": 67.6, "unit": "%"}, {"measurement": "μM NO release Avg", "setting": "Microglial cells; dose 0.75 μM, 48 hours", "value": 22.865, "unit": "µM"}, {"measurement": "% inhibition", "setting": "Microglial cells; [2]", "value": "−16.05% and −17.63% and −12.89%"}, {"measurement": "OD values (printed under head μM NO release)", "setting": "Microglial cells; [2]", "value": "0.195 and 0.199 and 0.201"}, {"measurement": "μM NO release", "setting": "Microglial cells; [2]", "value": "22.344 µM and 22.969 µM and 23.281 µM"}, {"measurement": "μM NO release Avg", "setting": "Microglial cells; dose 1.56 μM, 48 hours", "value": 21.094, "unit": "µM"}, {"measurement": "% inhibition", "setting": "Microglial cells; [3]", "value": "−8.16% and −9.74% and −1.84%"}, {"measurement": "OD values (printed under head μM NO release)", "setting": "Microglial cells; [3]", "value": "0.181 and 0.189 and 0.191"}, {"measurement": "μM NO release", "setting": "Microglial cells; [3]", "value": "20.156 µM and 21.406 µM and 21.719 µM"}, {"measurement": "μM NO release Avg", "setting": "Microglial cells; dose 3.125 μM, 48 hours", "value": 20.990, "unit": "µM"}, {"measurement": "% inhibition", "setting": "Microglial cells; [4]", "value": "−4.21% and −8.16% and −5.79%"}, {"measurement": "OD values (printed under head μM NO release)", "setting": "Microglial cells; [4]", "value": "0.186 and 0.184 and 0.189"}, {"measurement": "μM NO release", "setting": "Microglial cells; [4]", "value": "20.938 µM and 20.625 µM and 21.406 µM"}, {"measurement": "μM NO release Avg", "setting": "Microglial cells; dose 6.25 μM, 48 hours", "value": 20.156, "unit": "µM"}, {"measurement": "% inhibition", "setting": "Microglial cells; [5]", "value": "2.89% and −3.42%"}, {"measurement": "OD values (printed under head μM NO release)", "setting": "Microglial cells; [5]", "value": "0.183 and 0.175 and 0.185"}, {"measurement": "μM NO release", "setting": "Microglial cells; [5]", "value": "20.469 µM and 19.219 µM and 20.781 µM"}, {"measurement": "μM NO release Avg", "setting": "Microglial cells; dose 12.5 μM, 48 hours", "value": 18.802, "unit": "µM"}, {"measurement": "% inhibition", "setting": "Microglial cells; [6]", "value": "5.26% and −4.21% and 13.95%"}, {"measurement": "OD values (printed under head μM NO release)", "setting": "Microglial cells; [6]", "value": "0.161 and 0.172 and 0.184"}, {"measurement": "μM NO release", "setting": "Microglial cells; [6]", "value": "17.031 µM and 18.750 µM and 20.625 µM"}, {"measurement": "μM NO release Avg", "setting": "Microglial cells; dose 25 μM, 48 hours", "value": 19.219, "unit": "µM"}, {"measurement": "% inhibition", "setting": "Microglial cells; [7]", "value": "7.63% and 1.32% and −0.26%"}, {"measurement": "OD values (printed under head μM NO release)", "setting": "Microglial cells; [7]", "value": "0.179 and 0.169 and 0.177"}, {"measurement": "μM NO release", "setting": "Microglial cells; [7]", "value": "19.844 µM and 18.281 µM and 19.531 µM"}, {"measurement": "μM NO release Avg", "setting": "Microglial cells; dose 50 μM, 48 hours", "value": 17.083, "unit": "µM"}, {"measurement": "% inhibition", "setting": "Microglial cells; [8]", "value": "10.79% and 13.95%"}, {"measurement": "OD values (printed under head μM NO release)", "setting": "Microglial cells; [8]", "value": "0.161 and 0.158 and 0.165"}, {"measurement": "μM NO release", "setting": "Microglial cells; [8]", "value": "17.031 µM and 16.563 µM and 17.656 µM"}, {"measurement": "μM NO release Avg", "setting": "Microglial cells; dose 100 μM, 48 hours", "value": 13.125, "unit": "µM"}, {"measurement": "OD values (printed under head μM NO release)", "setting": "Microglial cells; [9]", "value": 0.136}, {"measurement": "μM NO release", "setting": "Microglial cells; [9]", "value": 13.125, "unit": "µM"}, {"measurement": "Avg % Inhibition", "setting": "Microglial cells; dose 200 μM, 48 hours", "value": 69.211, "unit": "%"}, {"measurement": "μM NO release Avg", "setting": "Microglial cells; dose 200 μM, 48 hours", "value": 6.094, "unit": "µM"}]}]}
